Experimental data reported in PMC5585294, “A potent series targeting the malarial cGMP-dependent protein kinase clears infection and blocks transmission” (Nature Communications, 2017).
pIC50: −log10 of the molar value.

What was measured:
[1] = system: P. falciparum (NF54) gametocytes; assay: Standard membrane feeding assay (SMFA), gametocytes fed to Anopheles stephensi; type: cell-based, Plasmodium falciparum; details: Plasmodium falciparum, NF54; gametocytes pre-incubated 24 h, oocysts counted day 7 post-feed; read-out: IC50 for reduction of the intensity of infection (oocysts)
Description: Mature P. falciparum (NF54) gametocytes (14 day culture, 0.3–0.5% gametocytes, 2% haematocrit) were obtained from an automated tipper system and incubated with compound for 24 h as previously described. Anopheles stephensi (Sind-Kasur Nijmegen strain[39] were reared at 30 °C and 70–80% humidity, while exposed to a 12/12 h day/night cycle. On the day of feeding, the gametocyte culture was adjusted to 50% hematocrit with human red blood cells and human serum and fed to 3–5 day old mosquitoes using a glass membrane mini-feeder system containing 0.35 ml of the P. falciparum culture/compound mix[40]. Unfed and partially fed mosquitoes were removed after feeding and blood fed females were maintained at 26 °C and 70–80% humidity. Up to 20 surviving mosquitoes were collected on day 7 post-infection and oocysts were visualized using a 1% merchurochrome solution and quantified by microscopy. IC50 values were determined by logistic regression using Maximum Likelihood Estimation to find best fit[41].

[2] = Parallel artificial membrane permeability assay (PAMPA); type: in vitro ADME
Excerpt: Compound mlm hlm mLogD PAMPA HepG2
name (%rem) (%rem) (nm/s) (IC50 µM)
Supplementary Table 2. Compound Properties. MLM, HLM, mLogD and PAMPA . mlm

[3] = Cytotoxicity assay using HepG2 cells; details: human
Description: (§1) Compound mlm hlm mLogD PAMPA HepG2 name (%rem) (%rem) (nm/s) (IC50 µM)
(§2) Supplementary Table 2. Compound Properties. MLM, HLM, mLogD and PAMPA . mlm (%rem): % of compound remaining after 30 minutes’ incubation with mouse liver microsomes; hlm (%rem): % of compound remaining after 40 minutes’ incubation with human liver microsomes; mLogD: measured LogD at pH 7.4; PAMPA: parallel artificial membrane permeability assay; HepG2: Cytotoxicity assay using HepG2 cells; n.t.: not tested.

[4] = Stability in human liver microsomes; details: human, microsomes, 40 min
Description: as §1, §2

physchem = details: pH 7.4
Description: as §1, §2

[5] = system: P. falciparum Pf3D7 0087/N9; assay: GSK P. falciparum humanized mouse model (GSKPfalcHuMouse) efficacy; details: 4 days
Description: The mice were infected with 2 × 10^7 P. falciparum Pf3D7^0087/N9-infected erythrocytes (Day 0) at ~ 40% chimerism in peripheral blood. […] AUCED90 is the average daily exposure of the compound in whole blood that reduces parasitemia at day 7 of the in vivo assay by 90% with respect to parasitemia in vehicle-treated mice.

human MLK3 = target: T1, human MLK3 (Homo sapiens, UniProt Q16584); assay: Human kinase panel single point screen, MLK3; type: biochemical; details: at 100 nM; highest level of inhibition in the panel
T1 construct: Protein Phosphorylation Unit, Dundee (screening site)
T1 sequence (Q16584 whole entry): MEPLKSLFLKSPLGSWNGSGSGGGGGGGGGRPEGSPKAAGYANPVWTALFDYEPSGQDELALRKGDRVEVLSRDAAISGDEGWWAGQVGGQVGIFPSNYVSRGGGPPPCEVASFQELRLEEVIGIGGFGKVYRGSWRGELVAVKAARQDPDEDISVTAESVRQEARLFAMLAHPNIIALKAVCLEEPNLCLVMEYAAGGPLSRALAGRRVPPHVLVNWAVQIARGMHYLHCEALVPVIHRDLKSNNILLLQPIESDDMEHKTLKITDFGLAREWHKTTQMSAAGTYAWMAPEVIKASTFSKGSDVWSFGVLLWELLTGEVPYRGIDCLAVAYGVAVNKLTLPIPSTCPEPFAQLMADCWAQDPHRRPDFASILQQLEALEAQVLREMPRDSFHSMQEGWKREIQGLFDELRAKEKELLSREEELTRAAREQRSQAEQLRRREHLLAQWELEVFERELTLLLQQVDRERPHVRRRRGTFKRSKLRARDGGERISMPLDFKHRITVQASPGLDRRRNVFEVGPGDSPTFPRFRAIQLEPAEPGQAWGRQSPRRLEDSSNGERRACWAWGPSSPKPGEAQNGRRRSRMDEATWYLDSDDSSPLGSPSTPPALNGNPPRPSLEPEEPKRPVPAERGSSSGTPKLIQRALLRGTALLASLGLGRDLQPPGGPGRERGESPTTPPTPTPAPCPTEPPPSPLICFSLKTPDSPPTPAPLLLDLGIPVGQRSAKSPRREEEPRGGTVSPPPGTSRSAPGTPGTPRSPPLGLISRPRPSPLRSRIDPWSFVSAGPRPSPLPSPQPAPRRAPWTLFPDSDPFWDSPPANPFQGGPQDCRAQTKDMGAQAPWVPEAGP
Excerpt: The results are expressed as % inhibition of kinase activity.
(1 picture or pasted object on this page, not shown here)

Molecule `Cc1cn2c(-c3ccnc(NCC4CC4)n3)c(-c3ccc(F)c(NS(C)(=O)=O)c3)nc2cc1CN(C)C` [ML10] has a pIC50 [1] of 7.38, a Papp [2] of 8.16 ×10⁻⁶ cm/s and a pIC50 [3] of less than 4.70. The “hlm (%rem)” value [4] was 61%, the logD (physchem) was 2.8 and the “parasitaemia at the end of the treatment” value ([5]; 100 mg/kg twice daily oral) was “not detectable”. For the same molecule, the effect on parasitaemia ([5]; 50 or 100 mg/kg twice daily oral) was “dramatically reduced parasitaemia” and the inhibition at 0.1 µM (human MLK3) was 40%.
